The results in this text go back to patent US5760036A, “Aminediol protease inhibitors” (E. R. Squibb & Sons, Inc., priority 1995, dated 1998).

One experiment addresses T1, HIV protease (Human immunodeficiency virus type 1 group M subtype B, UniProt P04585).
T1 construct: and purified protease
Kind of experiment: HIV Protease Assay. The experiment is classed as biochemical. Particulars: 10 μM inhibitor, 4% DMSO, 450 μM substrate, pH 5.5, 30 minutes at 37° C., RP-HPLC. In outline: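 At a single final concentration of 10 μM (4% DMSO), inhibitors were added to a 30-minute, 37° C reaction of purified enzyme with 450 μM H2N-Val-Ser-Gln-Asn-(β-naphthyl-alanine)-Pro-Val-Ile-OH at pH 5.5 (sodium acetate, BSA). Hydrolysis was quantified by reverse-phase HPLC with 220 nm detection after acid quench.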
On to `CC(C)(C)OC(=O)N[C@@H](Cc1ccccc1)[C@H](O)CNC[C@@H](O)[C@H](Cc1ccccc1)NC(=O)OC1c2ccccc2CC1O` (stereo partly drawn) [Compound 215, [1S-(1R*,2S*)(trans)]-[Iminobis[2-hydroxy-1-(phenylmethyl)-3,1-propanediyl)]biscarbamic acid, 1,1-dimethylethyl 2,3-dihydro-2-hydroxy-1H-inden-1-yl ester], for which the “HIV Protease % Inhibition at 10 μM” value was 66%.

Consider `CC(C)(C)OC(=O)N[C@@H](Cc1ccccc1)[C@H](O)CNC[C@@H](O)[C@H](Cc1ccccc1)NC(=O)C1(O)COCC1(C)C` (single isomer, unassigned; isomer b) [Compound 365, [1S-[1R*,2S*(2S*,3R*)]]-[2-Hydroxy-3-[[tetrahydro-3-hydroxy-4,4-dimethyl-3-furanyl)carbonyl]amino]-4-phenylbutyl]amino]-l-(phenylmethyl)-propyl]carbamic acid, 1,1-dimethylethyl ester, Isomer B], for which the “HIV Protease % Inhibition at 10 μM” value worked out at 72%.

On to `CC(C)(C)OC(=O)N[C@@H](Cc1ccccc1)[C@H](O)CNC[C@@H](O)[C@H](Cc1ccccc1)NC(=O)C1(O)CCc2ccccc21` (single isomer, unassigned; isomer a) [Compound 375, [1S-[1R*,2S*(2S*, 3R*)]]-[3-[[3-]](2,3-Dihydro-1-hydroxy-1H-inden-1-yl)carbonyl]amino]-2-hydroxy-4-phenylbutyl]amino]-2-hydroxy-1-(phenylmethyl)-propyl]carbamic acid, 1,1-dimethylethyl ester, isomer A], for which the “HIV Protease % Inhibition at 10 μM” value is 98%.

With `COC(=O)NC(C)(C(=O)N[C@@H](Cc1ccccc1)[C@H](O)CNC[C@@H](O)[C@H](Cc1ccccc1)NC(=O)OC(C)(C)C)C(C)(C)C` (single isomer, unassigned; isomer b) [Compound 374, [1S-[1R*,2S*(2S*, 3R*)]]-[1-[[[3-[[3-[[(1,1-Dimethylethoxy)carbonyl]amino]-2-hydroxy-4-phenylbutyl]amino]-2-hydroxy-1-(phenylmethyl)propyl]amino]carbonyl]-1,2-dimethylpropyl]carbamic acid, methyl ester, isomer B], the “HIV Protease % Inhibition at 10 μM” value amounted to 28%.

Still in this experiment, the particulars now being: pH 5.5, 10 μM inhibitor, 4% DMSO, 450 μM substrate, pH 5.5, 30 minutes at 37° C., RP-HPLC; read-out: HIV Protease % Inhibition at 10 μM.
`CC(C)[C@@H](NC(=O)NCc1nc2ccccc2[nH]1)C(=O)N[C@@H](Cc1ccccc1)[C@H](O)CNC[C@@H](O)[C@H](Cc1ccccc1)NC(=O)OC(C)(C)C` (relative stereo) [Compound 274, [1S*,2R*(2R*,3S*)]-N^2-[[(1H-Benzimidazol-2-ylmethyl)amino]carbonyl]-N-[3-[[3-[[(1,1-dimethylethoxy)carbonyl]amino]-2-hydroxy-4-phenylbutyl]amino]-2-hydroxy-1-(phenylmethyl)propyl]-D-valinamide]: the inhibition at 10 µM is 99%.

Take `CC(C)(C)OC(=O)N1Cc2ccccc2C[C@H]1[C@@H](O)CNC[C@H](O)[C@@H]1Cc2ccccc2CN1C(=O)OC(C)(C)C` [Compound 10, [S-(R*,R*)]-3,3'-[Iminobis(1-hydroxy-2,1-ethanediyl)]-bis[2(1H)-iso-quinolinecarboxylic acid], bis(1,1-dimethylethyl) ester]: the inhibition at 10 µM is 1%.

`CC(C)(C)OC(=O)N[C@@H](Cc1ccccc1)[C@H](O)CN[C@H](Cc1ccccc1)[C@H](O)CNC(=O)OCc1ccccc1` [Compound 189, [2R-[2R*,3R*(2R*,3S*)]]-[3-[[3-[[(1,1-Dimethylethoxy)carbonyl]amino]-2-hydroxy-4-phenylbutyl]amino]-2-hydroxy-4-phenylbutyl]-carbamic acid, phenylmethyl ester]: the inhibition at 10 µM came to 23%.

Consider `CC(C)(C)OC(=O)N1CCC[C@H]1[C@H](O)CNC[C@H](O)[C@@H]1CCCN1C(=O)OC(C)(C)C` [Compound 8, [S-(R*,R*)]-2-[2-[[[S-(R*,S*)]-2-[1-[(1,1-Dimethylethoxy)carbonyl]-pyrrolidinyl]-2-hydroxyethyl]amino]-hydroxyethyl]-1-pyrrolidine-carboxylic acid, (1,1-dimethylethyl) ester], for which the inhibition at 10 µM stood at 2%.

Consider `CC(C)(C)OC(=O)N[C@@H](Cc1ccccc1)[C@H](O)CNC[C@@H](O)[C@H](Cc1ccccc1)NC(=O)C1c2ccccc2CN1C=O` (stereo partly drawn) [Compound 270, [1S-[1R*,2S*(2S*,3R*)]]-[3-[[3-[[(2-Formyl-2,3-dihydro-1H-isoindol-1-yl)carbonyl]amino]-2-hydroxy-4-phenylbutyl]amino]-2-hydroxy-1-(phenylmethyl)-propyl]carbamic acid 1,1-dimethylethyl ester], for which the inhibition at 10 µM is 27%.

Regarding `CC(C)(C)OC(=O)N[C@@H](Cc1ccccc1)[C@H](O)CNC[C@@H](O)[C@H](Cc1ccccc1)NC(=O)COc1cccc2ccccc12` [Compound 63, [1S-[1R*,2S*(2S*,3R*)]]-[2-Hydroxy-3-[[2-hydroxy-3-[[(1-naphthalenyloxy)-acetyl]amino]-4-phenylbutyl]amino]-1-(phenyl-methyl)propyl]carbamic acid, 1,1-dimethylethyl ester], the inhibition at 10 µM is 53%.

As to `CC(C)(C)OC(=O)N[C@@H](Cc1ccccc1)[C@H](O)CNC[C@@H](O)[C@H](Cc1ccccc1)NC(=O)[C@@H](O)C(C)(C)C` [Compound 335, [1S-[1R*,2S*[2S*,3R*(R*)]]]-[3-[[3-[(2-Hydroxy-3,3-dimethyl-1-oxobutyl)amino]-2-hydroxy-4-phenylbutyl]amino]-2-hydroxy-1-(phenylmethyl)propyl]carbamic acid, 1,1-dimethylethyl ester], the inhibition at 10 µM worked out at 89%.

`CC(C)(C)OC(=O)N[C@@H](Cc1ccccc1)[C@H](O)CNC[C@@H](O)[C@H](Cc1ccccc1)NC(=O)[C@@H](O)c1ccccc1` [Compound 378, [1S-[1R*,2S*[2S*, 3R*(R*)]]]-[3-[[3-[2-Hydroxy-1-oxo-2-phenylethyl)amino]-2-hydroxy-4-phenylbutyl]amino]-2-hydroxy-1-(phenylmethyl)propyl]carbamic acid, 1-dimethylethyl ester]: the inhibition at 10 µM worked out at 27%.

`CC(C)(C)OC(=O)N[C@@H](Cc1ccccc1)[C@H](O)CN[C@H](Cc1ccccc1)[C@@H](O)CNC(=O)OCc1ccccc1` [Compound 185, [2S-[2R*,3S*(2S*,3R*)]]-[3-[[3-[[(1,1-Dimethylethoxy)carbonyl]amino-2-hydroxy-4-phenylbutyl]amino-2-hydroxy-4-phenylbutyl]carbamnic acid, phenylmethyl ester]: the inhibition at 10 µM came out at 5%.

`CC(C)(C)OC(=O)N[C@@H](Cc1ccccc1)[C@H](O)CNC[C@@H](O)[C@H](Cc1ccccc1)NS(=O)(=O)C(C)(C)C` [Compound 183, [1S-[1R*,2S*(2S*,3R*)]]-[3-[[3-[[(2,2-Dimethylethyl)sulfonyl]amino]-2-hydroxy-4-phenylbutyl]amino]-2-hydroxy-1-(phenylmethyl)proyl]carbamic acid, 1,1-dimethylethyl ester]: the inhibition at 10 µM was determined as 35%.

With `CC(C)(C)OC(=O)N[C@@H](Cc1ccccc1)[C@H](O)CNC[C@@H](O)[C@@H](Cc1ccccc1)NC(=O)OC(C)(C)C` [Compound 26i, [1R-[1R*,2R*(2R*,3S*)]]-3-[[3-[[(1,1-Dimethylethoxy)carbonyl]amino]-2-hydroxy-4-phenylbutyl]amino]-2-hydroxy-1-(phenylmethyl)propyl]carbamic acid, 1,1-dimethylethyl ester], the inhibition at 10 µM came to 57%.

Turning to `CC(C)(C)OC(=O)N[C@@H](Cc1ccccc1)[C@H](O)CNC[C@@H](O)[C@H](Cc1ccccc1)NC(=O)OCc1nc2ccccc2[nH]1` [Compound 289, [R-(R*,S*)]-[Iminobis[2-hydroxy-1-(phenylmethyl)-3,1-propanediyl)]biscarbamic acid, (1H-benzimidazol-2-yl)methyl 1,1-dimethylethyl ester], the inhibition at 10 µM was 53%.

Consider `CC(C)(C)OC(=O)N[C@@H](Cc1ccccc1)[C@H](O)CNC[C@@H](O)[C@H](Cc1ccccc1)NC(=O)C(N)C(F)(F)F` (stereo partly drawn) [Compound 329, [1S-[1R*,2S*(2S*,3R*)]]-[3-[[3-[[(1-Amino-2,2,2-trifluoroethyl)carbonyl]amino]-2-hydroxy-4-phenylbutyl]amino]-2-hydroxy-1-(phenylmethyl)propyl]carbamic acid, 1,1-dimethylethyl ester], for which the inhibition at 10 µM is 84%.

As for `CC(C)[C@H](N)C(=O)N[C@@H](Cc1ccccc1)[C@H](O)CNC[C@@H](O)[C@H](Cc1ccccc1)NC(=O)[C@@H](N)C(C)C` [Compound 43, [S-(1S*,2R*)]-N,N'-[Iminobis[2-hydroxy-1-(phenylmethyl)-3,1-propanediyl]]bis-L-valinamide], the inhibition at 10 µM stood at 21%.

As for `CC(C)(C)OC(=O)N[C@@H](Cc1ccccc1)[C@H](O)CNC[C@@H](O)[C@H](Cc1ccccc1)NC(=O)OC[C@H](O)CO` [Compound 231, [1S-(1R*,2S*),(S*)]-[Iminobis[2-hydroxy-1-(phenylmethyl)-3,1-propanediyl]]biscarbamic acid, 2,3-dihydroxypropyl 1,1-dimethylethyl ester], the inhibition at 10 µM is 83%.

For the molecule `CC(C)(C)OC(=O)N[C@@H](Cc1ccccc1)[C@H](O)CNC[C@@H](O)[C@H](Cc1ccccc1)NC(=O)CC(O)CO` (stereo partly drawn) [Compound 255, [1S-[1R*,2S*(2S*,3R*)]]-[3-[[3-[(3,4-Dihydroxy-1-oxo-butyl)amino]-2-hydroxy-4-phenylbutyl]amino]-2-hydroxy-1-(phenylmethyl)propyl]carbamic acid, 1,1-dimethylethyl ester], the inhibition at 10 µM came out at 86%.

With `COC(=O)N[C@H](C(=O)N[C@@H](Cc1ccccc1)[C@H](O)CNC[C@@H](O)[C@H](Cc1ccccc1)NC(=O)[C@](C)(O)C(C)(C)C)C(C)(C)C` (relative stereo) [Compound 383, [1R*,2S*[2S*, 3R*(S*)]]-N-[2-Hydroxy-3-[[2-hydroxy-3-[(2-hydroxy-2,3,3-trimethyl-1-oxobutyl)amino]-4-phenylbutyl]amino]-1-(phenylmethyl)propyl]-N^2-(2-methoxycarbonyl)-3-methyl-L-valinamide], the inhibition at 10 µM is 99%.

A word on the inhibition: it is how much of the control response was suppressed.
